Test results: patent US8742106B2 (Novartis AG, priority 2009, dated 2014)

Legend:
human orexin 1 receptors = human orexin 1 receptors (Homo sapiens (Human), UniProt O43613); assay: Calcium Accumulation in Cells (FLIPR), antagonism of orexin A; format: cell-based; details: for inhibition at 10 µM: measured at a concentration of 10 μM of compound, read-out: FLIPR hOx1R % inhibition value; for Ki: antagonism of orexin A, Cheng-Prusoff corrected, read-out: FLIPR hOx1R Ki
Procedure: (§1) Calcium Accumulation in Cells (FLIPR):
Cells expressing human orexin 1 or human orexin 2 receptors, were seeded at 8,000 cells/well in 384 well black-walled clear bottom, poly-D-lysine coated plates. After 24 h, the medium was removed and cells were washed once with phosphate buffered saline and serum-deprived overnight in assay buffer (130 mM NaCl, 5.4 mM KCl, 1.8 mM CaCl2, 0.8 mM MgSO4, 0.9 mM NaH2PO4, 25 mM glucose, 20 mM HEPES, pH 7.4) containing bovine serum albumin (1% w/v).
On the day of the experiment, the cells seeded in black plates were treated with assay buffer containing the Ca^2+ sensitive fluorescent dye Fluo4-AM (2 μM), and probenecid (0.1 mM). After 1 h plates were washed twice with, and resuspended in, assay buffer containing probenecid (0.1 mM) using a multi plate washer. The plates were placed into a FLIPR II (Fluorometric Imaging Plate Reader, Molecular Devices, Sunnyvale, Calif., USA) and baseline fluorescence (fluorescence light units, FLU) was measured (5 measurements, 2 S each; laser excitation 488 nm at 0.6-1 W, CCD camera exposure 0.4 s) before addition of buffer alone (basal) or containing test compounds (either compound of formula (I) or (I′) alone, agonist alone or agonist in the presence of various concentrations of compounds of formula (I) or (I′)). Fluorescence measurements were then continued every 1 S for 120 S followed by every 4 S for 240 S.
(§2) The measurements were typically made in two sequences:
(§3) In the first round, compounds of formula (I) or (I′) were tested alone, to detect possible agonist activity. Compounds of formula I or I′ were tested usually in a concentration range from 10^−9 M to 10^−5 M.
(§4) In the second round, performed one hour later (to allow for equilibration), Orexin A was tested either in the absence (calibration curves, Orexin A agonist controls) or in the presence of compounds of formula (I) or (I′) to determine antagonism.

human orexin 2 receptors = human orexin 2 receptors (Homo sapiens (Human), UniProt O43614); assay: as above; format: cell-based; details: for inhibition at 10 µM: measured at a concentration of 10 μM of compound, read-out: FLIPR hOx2R % inhibition value; for Ki: antagonism of orexin A, Cheng-Prusoff corrected, read-out: FLIPR hOx2R Ki
Procedure: as §1
Cells expressing human orexin 1 or human orexin 2 receptors, were seeded at 8,000 cells/well in 384 well black-walled clear bottom, poly-D-lysine coated plates.
On the day of the experiment, the cells seeded in black plates were treated with assay buffer containing the Ca^2+ sensitive fluorescent dye Fluo4-AM (2 μM), and probenecid (0.1 mM). After 1 h plates were washed twice with, and resuspended in, assay buffer containing probenecid (0.1 mM) using a multi plate washer. […] Fluorescence measurements were then continued every 1 S for 120 S followed by every 4 S for 240 S.
as §2, §3, §4

Sequence of human orexin 2 receptors (O43614 whole entry): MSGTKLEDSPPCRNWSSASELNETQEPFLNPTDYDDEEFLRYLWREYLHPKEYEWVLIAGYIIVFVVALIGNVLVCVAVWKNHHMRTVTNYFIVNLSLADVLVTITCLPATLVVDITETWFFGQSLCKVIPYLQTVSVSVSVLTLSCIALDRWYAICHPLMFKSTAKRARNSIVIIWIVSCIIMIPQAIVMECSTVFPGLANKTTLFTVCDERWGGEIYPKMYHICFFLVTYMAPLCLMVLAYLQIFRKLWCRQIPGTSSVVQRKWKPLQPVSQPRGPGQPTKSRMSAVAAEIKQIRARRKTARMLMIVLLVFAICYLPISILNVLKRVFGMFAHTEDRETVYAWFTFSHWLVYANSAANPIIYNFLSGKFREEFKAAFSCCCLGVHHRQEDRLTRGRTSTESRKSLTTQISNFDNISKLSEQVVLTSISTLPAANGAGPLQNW
Sequence of human orexin 1 receptors (O43613 whole entry): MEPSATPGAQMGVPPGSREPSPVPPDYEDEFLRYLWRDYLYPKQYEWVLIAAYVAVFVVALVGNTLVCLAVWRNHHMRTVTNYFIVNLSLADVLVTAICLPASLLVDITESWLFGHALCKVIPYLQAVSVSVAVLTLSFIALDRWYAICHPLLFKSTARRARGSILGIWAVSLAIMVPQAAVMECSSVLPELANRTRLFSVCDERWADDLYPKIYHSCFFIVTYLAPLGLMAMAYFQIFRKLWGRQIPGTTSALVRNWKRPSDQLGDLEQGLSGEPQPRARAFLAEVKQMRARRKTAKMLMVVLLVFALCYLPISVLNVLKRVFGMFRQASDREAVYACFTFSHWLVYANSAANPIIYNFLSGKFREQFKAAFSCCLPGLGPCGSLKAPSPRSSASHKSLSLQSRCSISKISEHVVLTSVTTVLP

Structure (SMILES) | inhibition at 10 µM (human orexin 1 receptors) | inhibition at 10 µM (human orexin 2 receptors) | Ki (human orexin 2 receptors) | Ki (human orexin 1 receptors)
Cn1nc(-c2ccccc2)c2c(C(F)(F)F)cc(OCC(=O)NC3CCC3)nc21 [Example 1.54, N-cyclobutyl-2-(1-methyl-3-phenyl-4-(trifluoromethyl)-1H-pyrazolo[3,4-b]pyridin-6-yloxy)acetamide] | 25% | 42% |  | 
CCCNC(=O)COc1cc(C(F)(F)F)c2c(-c3ccccc3)nn(C)c2n1 [Example 1.55, 2-(1-methyl-3-phenyl-4-(trifluoromethyl)-1H-pyrazolo[3,4-b]pyridin-6-yloxy)-N-propylacetamide] | 23% |  | 767 nM | 
Cn1nc(-c2ccccc2)c2c(C(F)(F)F)cc(OCC(=O)NC3CCCc4ccccc43)nc21 (centres unmarked) [Example 1.56, 2-(1-methyl-3-phenyl-4-(trifluoromethyl)-1H-pyrazolo[3,4-b]pyridin-6-yloxy)-N-(1,2,3,4-tetrahydronaphthalen-1-yl)acetamide] |  |  | 165 nM | 378 nM
C[C@H](NC(=O)COc1cc(C(F)(F)F)c2c(-c3cccc(Cl)c3)nn(C)c2n1)c1ccccc1 [Example 1.57, (S)-2-(3-(3-chlorophenyl)-1-methyl-4-(trifluoromethyl)-1H-pyrazolo[3,4-b]pyridin-6-yloxy)-N-(1-phenylethyl)acetamide] |  |  | 106 nM | 66 nM
COc1ccc([C@@H](C)NC(=O)COc2cc(C(F)(F)F)c3c(-c4ccccc4)nn(C)c3n2)cc1 [Example 1.59, (R)-N-(1-(4-methoxyphenyl)ethyl)-2-(1-methyl-3-phenyl-4-(trifluoromethyl)-1H-pyrazolo[3,4-b]pyridin-6-yloxy)acetamide] |  |  | 949 nM | 2290 nM
Cc1cc(OCC(=O)NC(C)c2ccncc2)nc2c1c(-c1ccccc1)nn2C (centres unmarked) [Example 1.63, 2-(1,4-dimethyl-3-phenyl-1H-pyrazolo[3,4-b]pyridin-6-yloxy)-N-(1-(pyridin-4-yl)ethyl)acetamide] | 27% | 34% |  | 
Cc1cc(OCC(=O)NC(C)c2cccnc2)nc2c1c(-c1ccccc1)nn2C (centres unmarked) [Example 1.64, 2-(1,4-dimethyl-3-phenyl-1H-pyrazolo[3,4-b]pyridin-6-yloxy)-N-(1-(pyridin-3-yl)ethyl)acetamide] | 26% | 39% |  | 
Cc1cc(OCC(=O)NC(C)c2ccccn2)nc2c1c(-c1ccccc1)nn2C (centres unmarked) [Example 1.65, 2-(1,4-dimethyl-3-phenyl-1H-pyrazolo[3,4-b]pyridin-6-yloxy)-N-(1-(pyridin-2-yl)ethyl)acetamide] | 26% | 30% |  | 
Cc1cccc(CNC(=O)COc2cc(C(F)(F)F)c3c(-c4ccccc4)nn(C)c3n2)c1 [Example 1.66, 2-(1-methyl-3-phenyl-4-(trifluoromethyl)-1H-pyrazolo[3,4-b]pyridin-6-yloxy)-N-(3-methylbenzyl)acetamide] | 23% | 41% |  | 
CC(C)CCNC(=O)COc1cc(C(F)(F)F)c2c(-c3ccccc3)nn(C)c2n1 [Example 1.68, N-isopentyl-2-(1-methyl-3-phenyl-4-(trifluoromethyl)-1H-pyrazolo[3,4-b]pyridin-6-yloxy)acetamide] | < 10% | 16% |  | 
Cc1cc(OCC(=O)N[C@@H](C)c2ccccc2)nc2c1c(C1CC1)nn2C [Example 1.69, (S)-2-(3-cyclopropyl-1,4-dimethyl-1H-pyrazolo[3,4-b]pyridin-6-yloxy)-N-(1-phenylethyl)acetamide] |  |  | 938 nM | 1010 nM
Cc1nn(C)c(C)c1C(C)NC(=O)COc1cc(C)c2c(C3CC3)nn(C)c2n1 (centres unmarked) [Example 1.72, 2-(3-cyclopropyl-1,4-dimethyl-1H-pyrazolo[3,4-b]pyridin-6-yloxy)-N-(1-(1,3,5-trimethyl-1H-pyrazol-4-yl)ethyl)acetamide] |  |  | 1230 nM | 2120 nM
Cc1cc(OCC(=O)N[C@H]2CCc3ccccc32)nc2c1c(C1CC1)nn2C [Example 1.75, (S)-2-(3-cyclopropyl-1,4-dimethyl-1H-pyrazolo[3,4-b]pyridin-6-yloxy)-N-(2,3-dihydro-1H-inden-1-yl)acetamide] | 27% |  | 809 nM | 
Cc1n[nH]c(C)c1C(C)NC(=O)COc1cc(C)c2c(C3CC3)nn(C)c2n1 (centres unmarked) [Example 1.76, 2-(3-cyclopropyl-1,4-dimethyl-1H-pyrazolo[3,4-b]pyridin-6-yloxy)-N-(1-(3,5-dimethyl-1H-pyrazol-4-yl)ethyl)acetamide] |  |  | 606 nM | 395 nM
C[C@H](NC(=O)CNc1cc(C(F)(F)F)c2c(-c3ccccc3)nn(C)c2n1)c1ccccc1 [Example 3.1, (S)-2-(1-methyl-3-phenyl-4-(trifluoromethyl)-1H-pyrazolo[3,4-b]pyridin-6-ylamino)-N-(1-phenylethyl)acetamide] |  |  | 1140 nM | 357 nM
Cc1ccc([C@H](C)NC(=O)COc2cc(C)c3c(-c4ccnn4C)nn(C)c3n2)cc1 [Example 4.3, (S)-2-(1,4-dimethyl-3-(1-methyl-1H-pyrazol-5-yl)-1H-pyrazolo[3,4-b]pyridin-6-yloxy)-N-(1-p-tolylethyl)acetamide] |  |  | 2220 nM | 2680 nM
Cc1ccc([C@H](C)NC(=O)COc2cc(C)c3c(-c4cnc(C)n4C)nn(C)c3n2)cc1 [Example 4.4, (S)-2-(3-(1,2-dimethyl-1H-imidazol-5-yl)-1,4-dimethyl-1H-pyrazolo[3,4-b]pyridin-6-yloxy)-N-(1-p-tolylethyl)acetamide] |  |  | 725 nM | 799 nM
Cc1ccc([C@H](C)NC(=O)COc2cc(C)c3c(-c4cc(C)nn4C)nn(C)c3n2)cc1 [Example 4.5, (S)-2-(3-(1,3-dimethyl-1H-pyrazol-5-yl)-1,4-dimethyl-1H-pyrazolo[3,4-b]pyridin-6-yloxy)-N-(1-p-tolylethyl)acetamide] |  |  | 923 nM | 670 nM
Cc1ccc([C@H](C)NC(=O)COc2cc(C)c3c(-c4cncn4C)nn(C)c3n2)cc1 [Example 4.11, (S)-2-(1,4-dimethyl-3-(1-methyl-1H-imidazol-5-yl)-1H-pyrazolo[3,4-b]pyridin-6-yloxy)-N-(1-p-tolylethyl)acetamide] |  |  | 1630 nM | 4330 nM
COc1cncc(-c2nn(C)c3nc(OCC(=O)N[C@@H](C)c4ccc(C)cc4)cc(C)c23)n1 [Example 4.12, (S)-2-(3-(6-methoxypyrazin-2-yl)-1,4-dimethyl-1H-pyrazolo[3,4-b]pyridin-6-yloxy)-N-(1-p-tolylethyl)acetamide] |  |  | 202 nM | 240 nM
Cc1ccc([C@H](C)NC(=O)COc2cc(C)c3c(-c4cn(C)cn4)nn(C)c3n2)cc1 [Example 4.13, (S)-2-(1,4-dimethyl-3-(1-methyl-1H-imidazol-4-yl)-1H-pyrazolo[3,4-b]pyridin-6-yloxy)-N-(1-p-tolylethyl)acetamide] |  |  | 626 nM | 1160 nM
Cc1nn(C)c(C)c1C(C)NC(=O)COc1cc(C(F)F)c2c(C3CC3)nn(C)c2n1 (centres unmarked) [Example 6.9, 2-(3-cyclopropyl-4-(difluoromethyl)-1-methyl-1H-pyrazolo[3,4-b]pyridin-6-yloxy)-N-(1-(1,3,5-trimethyl-1H-pyrazol-4-yl)ethyl)acetamide] |  |  | 527 nM | 778 nM
